{"source": "EPA's ToxValDB 9.5 (doi:10.2903/j.efsa.2015.4032)", "key": {"[1]": {"tested_on": "Apis mellifera", "details": "acute, mortality"}, "[2]": {"tested_on": "Bibionidae", "details": "chronic/long-term; duration: 28 days"}, "[3]": {"tested_on": "Colinus virginianus"}, "[4]": {"tested_on": "Daphnia magna", "details": "chronic/long-term; duration: 21 days; reproduction"}, "[5]": {"tested_on": "Folsomia candida", "details": "chronic/long-term"}, "[6]": {"tested_on": "Hypoaspis aculeifer", "details": "chronic/long-term"}, "[7]": {"tested_on": "Pimephales promelas", "details": "chronic/long-term; duration: 33 days; other"}, "[8]": {"tested_on": "Rattus norvegicus"}, "[9]": {"tested_on": "Tagia sp."}, "[10]": {"tested_on": "Aphidius rhopalosiphi", "assay": "LR50; higher = less toxic", "details": "not reported; mortality"}, "[11]": {"tested_on": "Typhlodromus pyri", "assay": "LR50; higher = less toxic", "details": "not reported; mortality"}}, "data": [{"smiles": "Cc1cccc2sc3nncn3c12", "note": "[2,7,8,9-Tricyclazole]", "values": [{"measurement": "LD50", "setting": "[1]; dermal", "value": "> 99", "unit": "µg/piece"}, {"measurement": "LD50", "setting": "[1]; oral, unspecified", "value": 30.9, "unit": "µg/piece"}, {"measurement": "NOEC", "setting": "[2]", "value": 1.68, "unit": "mg/L"}, {"measurement": "LD50", "setting": "[3]; acute, oral", "value": "> 2180", "unit": "mg/kg-day"}, {"measurement": "LC50", "setting": "[3]; acute, oral, diet", "value": "> 1140", "unit": "mg/kg-day"}, {"measurement": "NOAEL", "setting": "[3]; reproduction developmental", "value": 27.1, "unit": "mg/kg-day"}, {"measurement": "NOEC", "setting": "[4]", "value": 1.3, "unit": "mg/L"}, {"measurement": "NOEC", "setting": "[5]", "value": 32, "unit": "mg/kg"}, {"measurement": "NOEC", "setting": "[6]", "value": 16, "unit": "mg/kg"}, {"measurement": "NOEC", "setting": "[7]", "value": 0.743, "unit": "mg/L"}, {"measurement": "LD50", "setting": "[8]; acute, oral, F, mortality", "value": 237, "unit": "mg/kg-day"}, {"measurement": "NOAEL", "setting": "[8]; chronic", "value": 5, "unit": "mg/kg-day"}, {"measurement": "LC50", "setting": "[9]; acute, duration: 14 days, mortality", "value": "> 1000", "unit": "mg/kg"}, {"measurement": "NOEC", "setting": "[9]; chronic/long-term", "value": 250, "unit": "mg/kg"}, {"measurement": "LR50", "setting": "[10]", "value": "< 460", "unit": "g/ha"}, {"measurement": "LR50", "setting": "[11]", "value": "> 460", "unit": "g/ha"}]}]}
